Test results as given in patent US20150218599A1, “METHODS FOR PRODUCTION OF ALCOHOLS FROM CARBOXYLIC ACIDS VIA FERMENTATION” (Cornell University, priority 2012, published 2015).

Assays:
C. ljungdahlii ERI-2 [1] = experiment: Carboxylic acid reduction in batch cultures with constant syngas supply; type: cell-based, Clostridium ljungdahlii; details: 15 mM carboxylic acid; for max. opt. density at 600 nm: triplicate
Method: (§1) All chemicals were purchased from Sigma-Aldrich, St. Louis, Mo., unless stated otherwise. Bacterial strain and growth conditions. Most experiments were conducted with C. ljungdahlii ERI-2 (ATTC 55380), which has been used successfully for syngas to ethanol fermentation. Some experiments were repeated with C. ragsdalei P11 (ATTC BAA-622). Bacteria were grown anaerobically at 35° C. in medium designed for efficient syngas fermentation. This medium is mostly based on ATCC medium 1754 but contains higher concentrations of the macronutrient elements. The yeast extract concentration was 0.5 g/L or 0.0 g/L as indicated for each experiment; the concentration of MES (2-(N-morpholino)ethanesulfonic acid) was 150 mM; carboxylic acids (propionic, n-butyric, isobutyric, n-valeric or n-caproic acid) were added to final concentrations of 15 mM before adjustment of the pH to 5.5. The syngas atmosphere was a synthetic blend of 60% [vol/vol]carbon monoxide, 35% hydrogen, and 5% carbon dioxide (Airgas East, Ithaca, N.Y.). Precultures of C. ljungdahlii or C. ragsdalei were grown in 250 ml serum bottles containing 20 ml medium with 0.5 g/L or 0.0 g/L yeast extract (the latter for inoculation of experiments with no yeast extract) and syngas in the headspace at a pressure of 28 psi with finite amounts of syngas. Precultures were maintained in an active state by weekly transfer of 2% into a fresh serum bottle with a headspace of finite syngas.
Experimental setup. The experiments to determine the ability of C. ljungdahlii to reduce propionic acid, n-butyric acid, n-valeric acid, n-caproic acid, or isobutyric acid (2-methyl propionic acid) to the corresponding alcohols were performed in triplicate in 250 ml rubber-stoppered Pyrex glass bottles (Fisher Scientific, Pittsburgh, Pa.), which were used as batch systems in regards to the growth medium, but with constant syngas supply (FIG. 1A). Three stainless steel needles of different length (21 gauge, Becton Dickinson Franklin Lakes, N.J., and ColeParmer, Vernon Hills, Ill.) were punched through each rubber stopper as gas supply, vent, and sample ports. The reactors were filled with 220 mL medium containing 0.5 g/L yeast extract and one of each carboxylic acids at a concentration of 15 mM, autoclaved, and then equipped with fermentation airlocks (www.winemakingsuperstore.com) filled with 5% sulfuric acid to prevent contamination by other microbes or oxygen, and placed in a temperature-controlled recirculating water bath for mechanical agitation using a 15 multi-position IKA magnetic stirrer (Cole-Parmer Vernon Hills, Ill. 60061 USA). Artificial syngas was constantly supplied to up to 12 reactors at a time, at a flow rate of 5 mL/min to each reactor with a gassing station with multiple outlets and low-flow brass needle valves (McMaster-Carr, Aurora, Ohio), sterile Masterflex viton tubing (Cole Parmer, Vernon Hills, Ill.), 0.22-μm sterile filters (Fisher Scientific), and sterile needles through the rubber stopper (size 6.5, VWR, Radnor, Pa.) connected to gas diffusion stones (Fisher Scientific). All reactors were inoculated with 2% exponentially growing pre-cultures. The fermentation was operated for ca. 400 h.
(§2) Analytical procedures. Cell dry weight concentration in the cultures was determined through measurement of the optical density with a Milton Roy Spectronic 1201 spectrophotometer at a wavelength of 600 nm after determining a correlation coefficient of 242 mg dry weight/(L*OD600nm). The carbon content was calculated using the universal proportion of elements in microbial biomass (C5H7O2N). A gas chromatography system (HP 5890, Hewlett Packard, Palo Alto, Calif.), which was equipped with a 7673 autoinjector and flame ionization detector, was used for the quantification of carboxylic acids and alcohols. GC columns were purchased from Sigma-Aldrich, Inc., St. Louis, Mo. The flow rates of hydrogen, air, and helium were 35, 380, and 30 mL/min. […]

C. ragsdalei P11 = experiment: as above; type: cell-based, Clostridium ragsdalei; details: 15 mM carboxylic acid; for max. opt. density at 600 nm: triplicate
Method: as §1
Experimental setup. The experiments to determine the ability of C. ljungdahlii to reduce propionic acid, n-butyric acid, n-valeric acid, n-caproic acid, or isobutyric acid (2-methyl propionic acid) to the corresponding alcohols were performed in triplicate in 250 ml rubber-stoppered Pyrex glass bottles (Fisher Scientific, Pittsburgh, Pa.), which were used as batch systems in regards to the growth medium, but with constant syngas supply (FIG. 1A). Three stainless steel needles of different length (21 gauge, Becton Dickinson Franklin Lakes, N.J., and ColeParmer, Vernon Hills, Ill.) were punched through each rubber stopper as gas supply, vent, and sample ports. […]
as §2, with “alcohols.” for “alcohols. GC columns were purchased from Sigma-Aldrich, Inc., St. Louis, Mo. The flow rates of hydrogen, air, and helium were 35, 380, and 30 mL/min.”

C. ljungdahlii ERI-2 [2] = experiment: Batch syngas fermentation in 1 L bottles with a finite amount of syngas (stoichiometry); type: cell-based, Clostridium ljungdahlii; details: 15 mM n-butyric acid, 25 to 115 h
Method: The stoichiometry of substrates and products of syngas fermentation with 0 mM n-butyric acid and 15 mM n-butyric acid was determined in 1 L rubber-stoppered Pyrex glass bottles filled with […] medium without yeast extract and 1051.6 ml syngas headspace at a pressure of 28 psi. […] Here, yeast extract was omitted from the growth medium to minimize the interference of organic compounds (amino acids) in the fermentation. Two needles, each connected to a three-way valve, were used to take gas or liquid samples from the reactor. Gas pressure was measured using gauge pressure transducers (Model PX26, Omega Engineering, Inc., Stamford, Conn.) attached to hypodermic needles inserted through a rubber septum on the three-way valve of the sampling port. […] Cell density (OD600nm), pH, headspace gas pressure, concentrations of carbon monoxide, hydrogen, and carbon dioxide in the headspace, and concentrations of carboxylic acids and solvents in the culture medium were monitored daily. […]
Analytical procedures. Cell dry weight concentration in the cultures was determined through measurement of the optical density with a Milton Roy Spectronic 1201 spectrophotometer at a wavelength of 600 nm after determining a correlation coefficient of 242 mg dry weight/(L*OD600nm). The carbon content was calculated using the universal proportion of elements in microbial biomass (C5H7O2N). […]

| Compound | growth rate (C. ljungdahlii ERI-2 [1]) [h⁻¹] | max. opt. density at 600 nm (C. ljungdahlii ERI-2 [1]) | growth rate (C. ragsdalei P11) [h⁻¹] | max. opt. density at 600 nm (C. ragsdalei P11) | cell mass DW (C. ljungdahlii ERI-2 [2]) [mg] | maximum OD600 (C. ljungdahlii ERI-2 [2]) |
| --- | --- | --- | --- | --- | --- | --- |
| CC(C)C(=O)O [isobutyric acid] | 0.077 ± 0.008 | 2.50 ± 0.31 |  |  |  |  |
| CCCC(=O)O [n-butyric acid] | 0.094 ± 0.004 | 2.71 ± 0.39 | 0.120 ± 0.004 | 0.98 ± 0.05 | 16.65 ± 2.99 | 1.34 ± 0.21 |
| CCCCCC(=O)O [n-caproic acid] | 0.049 ± 0.003 | 1.47 ± 0.17 |  |  |  |  |
| CCCCC(=O)O [n-valeric acid] | 0.077 ± 0.007 | 2.01 ± 0.04 |  |  |  |  |
| CCC(=O)O [propionic acid] | 0.084 ± 0.012 | 2.69 ± 0.19 | 0.093 ± 0.024 | 0.53 ± 0.14 |  |  |
